Values of other authors as cited in patent US20030049320A1, “Novel in-situ forming controlled release microcarrier delivery system” (priority 2000, published 2003).

Conditions: intravenously as a solution, reported in the literature

CC(=O)O[C@H]1C(=O)[C@@]2(C)[C@H]([C@H](OC(=O)c3ccccc3)[C@]3(O)C[C@H](OC(=O)[C@H](O)[C@@H](NC(=O)c4ccccc4)c4ccccc4)C(C)=C1C3(C)C)[C@]1(OC(C)=O)CO[C@@H]1C[C@@H]2O [paclitaxel]
Plasma elimination half-life of paclitaxel: 1.1 h
